According to patent US20050004227A1, “Cell growth inhibitor” (priority 2001, published 2005):
Where two headings read alike, the source gives them in different places.

Tests used:
Type in all cases: cell-based
[1] = tested on: human pancreatic cancer cell line AsPC-1; assay: Cell growth inhibition of AsPC-1, MTS assay
Procedure: (§1) AT-264 was dissolved in RPMI1640—10 mM Hepes (hereinafter, abbreviated to ‘the medium’) containing 0.5% ethanol and 0.5% DMSO to prepare 2.5 mM AT-264 solution. Then, this solution was diluted with the medium to prepare 0.625 mM and 0.0625 mM AT-264 solutions.
A 5×10^4 cells/mL solution of human pancreatic cancer cell line AsPC-1 was prepared using a medium containing 50% FBS. This suspension was plated onto a 96-well plate pre-coated with Collagen type I at 40 μL/well (2×10^3 cells), and 160 μL of the AT-264 solution was added. This was cultured for six days in a CO2 incubator (on the second day of culturing, 100 units/mL penicillin and 0.1 mg/mL streptomycin were added). On the sixth day of culturing, the number of viable cells was quantified by MTS assay.

[2] = molecular target: T1, human PepT2 (Homo sapiens, UniProt Q16348); assay: Inhibition of [3H] glycylsarcosine uptake into BaF3/PepT2 cells
T1 construct: expressed in transfected cells; host or cells: BaF3 (murine bone marrow-derived cell line)
T1 sequence (Q16348 1-729): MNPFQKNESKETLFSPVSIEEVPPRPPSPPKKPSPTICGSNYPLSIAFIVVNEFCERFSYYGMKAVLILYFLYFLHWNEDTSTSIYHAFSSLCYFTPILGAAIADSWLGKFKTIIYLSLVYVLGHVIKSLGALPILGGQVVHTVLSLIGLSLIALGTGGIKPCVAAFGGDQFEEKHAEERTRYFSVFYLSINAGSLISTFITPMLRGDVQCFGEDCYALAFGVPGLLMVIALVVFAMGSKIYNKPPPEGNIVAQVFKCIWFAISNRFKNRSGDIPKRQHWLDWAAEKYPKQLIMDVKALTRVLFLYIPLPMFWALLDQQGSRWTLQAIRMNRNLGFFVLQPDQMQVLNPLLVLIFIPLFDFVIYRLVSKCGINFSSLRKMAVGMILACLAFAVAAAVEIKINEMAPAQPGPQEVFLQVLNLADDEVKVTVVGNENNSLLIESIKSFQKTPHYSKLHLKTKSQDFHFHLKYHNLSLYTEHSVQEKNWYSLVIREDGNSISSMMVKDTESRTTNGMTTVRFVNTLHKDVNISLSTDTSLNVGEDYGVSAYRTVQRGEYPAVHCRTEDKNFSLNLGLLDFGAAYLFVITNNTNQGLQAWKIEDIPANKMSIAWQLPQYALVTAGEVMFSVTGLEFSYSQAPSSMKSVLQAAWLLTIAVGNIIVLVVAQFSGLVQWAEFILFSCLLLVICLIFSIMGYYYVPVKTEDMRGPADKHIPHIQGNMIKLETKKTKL
From the text: The ability of AT-264 to inhibit PepT2 was examined using a murine bone marrow-derived cell line BaF3 in which human PepT2 is forced to be expressed (hereinafter, abbreviated to BaF3/PepT2).

[3] = tested on: human pancreatic cancer cell line BxPC-3; assay: Cell growth inhibition of BxPC-3, MTS assay
Procedure: as §1, with “Hepes with 100 units/mL penicillin and 0.1 mg/mL streptomycin” for “Hepes”, “Furthermore,” for “Then,”
5×10^4 cells/mL solution of BxPC-3 was prepared using the medium containing 50% FBS. This suspension was plated onto a 96-well plate pre-coated with Collagen type I at 40 μL/well (2×10^3 cells), and 160 μL of AT-264 solution was added. This was cultured for six days in a CO2 incubator, and on the sixth day of culturing, the number of viable cells was quantified by MTS assay.

[4] = molecular target: T2, PepT1 (Homo sapiens, UniProt P46059); assay: Inhibition of [14C] glycylsarcosine uptake into Caco-2 cells
T2 construct: In Caco-2 cells, only PepT1 was expressed; endogenous in cells; host or cells: Caco-2 (human colon cancer cell line)
T2 sequence (P46059 1-708): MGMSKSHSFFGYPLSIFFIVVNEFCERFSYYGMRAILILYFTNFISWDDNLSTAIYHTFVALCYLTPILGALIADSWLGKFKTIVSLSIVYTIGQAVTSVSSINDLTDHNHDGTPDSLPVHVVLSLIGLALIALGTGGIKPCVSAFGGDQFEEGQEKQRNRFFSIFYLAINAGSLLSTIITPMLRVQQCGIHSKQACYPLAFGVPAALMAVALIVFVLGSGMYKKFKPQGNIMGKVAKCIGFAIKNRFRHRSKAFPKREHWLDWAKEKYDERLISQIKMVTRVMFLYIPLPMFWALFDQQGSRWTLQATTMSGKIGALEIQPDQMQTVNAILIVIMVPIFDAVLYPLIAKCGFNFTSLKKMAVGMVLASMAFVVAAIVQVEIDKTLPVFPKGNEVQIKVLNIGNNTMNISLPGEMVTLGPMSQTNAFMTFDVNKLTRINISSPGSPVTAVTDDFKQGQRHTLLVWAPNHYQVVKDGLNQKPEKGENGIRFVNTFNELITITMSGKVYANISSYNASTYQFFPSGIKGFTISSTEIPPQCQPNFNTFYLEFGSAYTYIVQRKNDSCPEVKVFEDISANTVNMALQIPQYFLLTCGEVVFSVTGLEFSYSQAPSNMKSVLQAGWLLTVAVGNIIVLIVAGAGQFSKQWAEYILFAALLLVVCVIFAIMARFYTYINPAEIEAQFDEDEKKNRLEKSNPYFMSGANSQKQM
Procedure: AT-264's ability to inhibit PepT was examined using a human colon cancer cell line (Caco-2 cells). The results were that the IC50 for uptake of radioactive substrate [^14C] glycylsarcosine into cells was 100 μM (FIG. 1). In Caco-2 cells, only PepT1 was expressed, and PepT1 function was considered to be inhibited by AT-264. The purity of AT-264 used in the present experiment was approximately 50% to 60%, and the actual IC50 was thought to be about 50 μM or so.

IC50 ([4]; AT-264 purity approximately 50% to 60%, read-out: IC50 for uptake of radioactive substrate [14C] glycylsarcosine into cells): 100 µM
IC50 ([4]; estimated from purity of approximately 50% to 60%, read-out: actual IC50 (corrected for purity of AT-264)): ~50 µM
SMILES: N=C(N)c1cccc(CC(NS(=O)(=O)NCc2cccc3ccccc23)C(=O)N2CCCCC2C(=O)O)c1 (stereo not drawn) [AT-264]
Cell growth inhibition ([1]; AsPC-1, 0.5 mM AT-264, six days culture): slight
inhibition at 2000 µM ([1]; Homo sapiens, ASPC1, 144 h, AsPC-1, 2 mM AT-264, six days culture): ~30%
Morphological changes to AsPC-1 under the microscope ([1]; in the presence of AT-264): not observed
uptake of radioactive substrate [3H] glycylsarcosine into cells [2]: inhibited in a concentration-dependent manner
inhibition at 500 µM ([3]; Homo sapiens, 144 h, BxPC-3, 0.5 mM AT-264, six days culture): ~20%
inhibition at 2000 µM ([3]; Homo sapiens, 144 h, BxPC-3, 2 mM AT-264, six days culture): ~75%
Morphological changes to BxPC-3 under the microscope ([3]; in the presence of AT-264): not observed
